Article PMC3504386 (Chemmedchem, 2010)

Molecular target: T1, CTP synthetase (CTPS) (Trypanosoma brucei, UniProt Q4GZ95)
T1 construct: gene TB927.1.1240
Test: coupled spectrophotometric enzyme assay (pyruvate kinase/lactate dehydrogenase), […] min pre-incubation on ice
Assay type: biochemical

T1 sequence (Q4GZ95 entry or part of it): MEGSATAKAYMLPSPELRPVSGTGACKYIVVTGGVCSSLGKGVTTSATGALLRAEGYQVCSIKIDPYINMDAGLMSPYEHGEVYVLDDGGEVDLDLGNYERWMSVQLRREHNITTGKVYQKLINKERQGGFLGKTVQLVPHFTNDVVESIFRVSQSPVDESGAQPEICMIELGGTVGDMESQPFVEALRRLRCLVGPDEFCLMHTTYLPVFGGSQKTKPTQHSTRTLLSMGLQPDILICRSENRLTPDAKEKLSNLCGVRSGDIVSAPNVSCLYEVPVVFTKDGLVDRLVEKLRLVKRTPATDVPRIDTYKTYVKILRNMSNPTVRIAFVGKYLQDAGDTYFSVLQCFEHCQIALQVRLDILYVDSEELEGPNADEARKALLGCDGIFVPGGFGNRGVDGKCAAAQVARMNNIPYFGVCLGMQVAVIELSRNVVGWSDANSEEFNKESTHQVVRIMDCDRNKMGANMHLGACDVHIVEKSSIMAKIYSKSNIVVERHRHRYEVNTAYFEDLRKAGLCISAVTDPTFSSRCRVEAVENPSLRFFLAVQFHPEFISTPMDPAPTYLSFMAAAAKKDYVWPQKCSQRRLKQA

`N[C@H](C(=O)O)[C@@H]1CC(Cl)=NO1` [compound 1, Acivicin] showed an IC50 of 320 ± 25 nM.
With `N[C@H](C(=O)O)[C@@H]1CC(Br)=NO1` [compound 2, (αS,5S)-α-amino-3-bromo-4,5-dihydroisoxazol-5-yl acetic acid] the IC50 was 98 ± 10 nM.
